The source of these data is publication PMC8705409, “Synthesis of sp^2-Iminosugar Selenoglycolipids as Multitarget Drug Candidates with Antiproliferative, Leishmanicidal and Anti-Inflammatory Properties” (Molecules, 2021).

Data set [1] has as its system human solid tumor cell lines A549, SW1573, HBL-100, T-47D, HeLa, WiDr. Further details: method as in PMID 28728108. The conditions noted are these: same assay; read-out: GI50 of reference agent in the same assay; cited from earlier work.
Data set [2] deals with T-47D (breast) human solid tumor cell line. The data set is described as follows: Antiproliferative SRB assay (HTS), T-47D. The format is cell-based. The conditions noted are these: T47D, 48 h. As to the method: (§1) All reagents were used as purchased from commercial suppliers without further purification. The human solid tumor cell lines used in this study were: A549, SW1573 (lung), HBL-100, T-47D (breast), HeLa (cervix) and WiDr (colon). These cell lines were a kind gift from Prof. G.J. Peters (VU Medical Center, Amsterdam, The Netherlands).
(§2) Cells were inoculated onto 96-well microtiter plates in a volume of 100 μL per well at densities of 2500 (A549, HBL-100, HeLa, and SW1573) and 5000 (T-47D and WiDr) cells per well, based on their doubling times. Compounds were initially dissolved in DMSO at 400 times the desired final maximum test concentration. Control cells were exposed to an equivalent concentration of DMSO (0.25% v/v, negative control). Each agent was tested in triplicate at different dilutions in the range of 1–100 μM. The drug treatment started on day 1 after plating. Drug incubation times were 48 h, after which cells were precipitated with 25 μL ice-cold TCA (50% w/v) and fixed for 60 min at 4 °C. Then the SRB assay was performed. The optical density (OD) of each well was measured at 530 nm, using BioTek’s PowerWave XS Absorbance Microplate Reader. Values were corrected for background OD from wells only containing medium. The antiproliferative activity for each compound, expressed as GI50 values, was calculated according to NCI formulas.
For orientation: In SRB staining, fixed cells bind dye roughly in proportion to their protein.

Data set [3] can be described thus: Cellular toxicity, MTT assay, THP-1. The data set is classed as cell-based. The conditions noted are these: human, maximal concentration 200 µM, read-out: EC50 THP-1 Cell Line (cytotoxicity). The method, then:
(§3) Human myelomonocytic cell line THP-1 was grown at 37 °C and 5% CO2 in RPMI-1640 supplemented with 10% iFBS, 2 mM […], 100 U/mL penicillin and 100 μg/mL streptomycin. 3 × 10^4 cells/well in 96-well plates were differentiated to macrophages with 20 ng/mL of PMA treatment for 48 h followed by 24 h of culture in fresh medium. MRC5 cells were grown at 37 °C and 5% CO2 in DMEM complete media. 4000 cells/well in 96-well plates were incubated for 24 h at 37 °C and 5% CO2.
(§4) Cellular toxicity of all compounds was determined using the colorimetric MTT-based assay after incubation at 37 °C for 72 h in the presence of increasing concentrations of compounds (final maximal concentrations 200 µM). The results are expressed as EC50 values, as the concentration of the compound that reduce cell growth by 50% versus untreated control cells. Assays were performed in triplicate.
(Tetrazolium dyes change colour on reduction, which living cells bring about.)

Data set [4] in a line: Cellular toxicity, MTT assay, MRC-5. The format is cell-based. The conditions noted are these: human, maximal concentration 200 µM, read-out: EC50 MRC-5 Cell Line (cytotoxicity). As to the method:
as §3, §4

For data set [5], the system named is SW1573 (lung) human solid tumor cell line. The data set is described as follows: Antiproliferative SRB assay (HTS), SW1573. The data set is classed as cell-based. Particulars: 48 h. As to the method: as §1, §2
For data set [6], the system named is iNOS expression in Bv.2 microglial cells. Briefly: LPS-induced iNOS protein expression (Western blot). The conditions noted are these: Bv.2 cells, LPS 200 ng/mL, compound at 10 μM. The data set is classed as cell-based, mouse. The method, then:
(§5) Mouse microglia Bv.2 cell line was supplied by Dr. M.L. Nieto (IBGM, Valladolid, Spain). Bv.2 cells were cultured at 37 °C in a humidified atmosphere with 5% CO2 in RPMI supplemented with 10% (v/v) heat-inactivated FBS, 1% (v/v) penicillin/streptomycin (Sigma) and 2 mM L-glutamine (Gibco, Carlsbad, CA, USA). Cells were grown up to 70% confluence and then washed twice with PBS and further cultured in serum-free medium and stimulated with LPS (200 ng/mL) with or without 14/10 (0.1–50 µM) for 24 h.
(§6) Bv.2 microglial cells were homogenized in lysis buffer containing 50 mM Tris-HCl, pH 7.4, 150 mM NaCl, 1 mM Na3VO4, 1 mM NaF, 1 mM EGTA, […] and 0.25% (w/v) sodium deoxycholate, supplemented with protease inhibitors (10 µg/mL leupeptin, 10 µg/mL aprotinin, and 100 µg/mL phenylmethylsulphonyl fluoride). All debris was removed by centrifugation at 14,000× g for 10 min at 4 °C and protein concentration was quantified using the Bio-Rad protein assay with BSA as a standard. Equivalent amounts of protein were resolved using denaturing sodium dodecyl sulphate-polyacrylamide gel electrophoresis (SDS-PAGE), followed by transfer to PVDF membranes (Bio-Rad). […]
(§7) Densitometry of the Western blots was performed using the ImageJ program. […] Data were analyzed by one-way ANOVA followed by Bonferroni t-test or by paired t-test when comparisons were among two groups. […]
In general terms: A western blot detects proteins with antibodies after separation by electrophoresis.

The subject of data set [7] is intracellular amastigotes of Leishmania donovani HU3. Briefly: Susceptibility of intracellular Leishmania amastigotes (luciferase) in THP-1 macrophages. Particulars: L. donovani HU3 in macrophage-differentiated THP-1, 72 h, threshold 20 μM. The data set is classed as cell-based. As to the method: Macrophage-differentiated-THP-1 cells, which are considered a suitable model for human macrophages, were plated at a density of 3 × 10^4 macrophages/well in 96-well white polystyrene microplates, and were infected at a macrophage/parasite ratio of 1:10 with L. donovani HU3 promastigotes. 24 h after infection at 35 °C and 5% CO2, extracellular parasites were removed by washing with serum-free medium. Infected cell cultures were then incubated at different compound concentrations in RPMI 1640 medium plus 10% iFBS at 37 °C with 5% CO2 for 72 h. To determine the susceptibility of L. donovani-LUC amastigotes, infected macrophages maintained in 96-well plates were lysed and then luminescence intensity was measured as indicative of the intracellular parasite growth, using the Luciferase Assay System Kit (Promega, Madison, WI, USA) according to the instructions of the supplier.

In data set [8] the test system is arginase-1 expression in Bv.2 microglial cells. Briefly: Arginase-1 levels (Western blot). The format is cell-based, mouse. The conditions noted are these: Bv.2 cells, absence or presence of LPS 200 ng/mL; 10 at 10 μM, 14 at 50 μM. As to the method:
as §5, §6, §7

The subject of data set [9] is A549 (lung) human solid tumor cell line. Briefly: Antiproliferative SRB assay (HTS), A549. The format is cell-based. The conditions noted are these: 48 h. The method, then: as §1, §2
Data set [10] has as its system HBL-100 (breast) human solid tumor cell line. The data set is described as follows: Antiproliferative SRB assay (HTS), HBL-100. Particulars: 48 h. The data set is classed as cell-based. The method, then: as §1, §2
For data set [11], the system named is nitrite production in Bv.2 microglial cells. The data set is described as follows: Nitrite production in LPS-stimulated Bv.2 cells (Griess method). Particulars: LPS 200 ng/mL, 24 h. The format is cell-based, mouse. The method, then:
as §5
Nitrite levels were measured by using the Griess method. Briefly, nitrites turn into a pink compound in contact with an acid solution containing 1% sulphanilamide and 0.1% N-(1-naphthyl)ethylenediamine (NEDA), and can be quantified by a colorimetric method at 540 nm in a microplate reader (Versamax Tunable Microplate reader, Molecular Devices, Sunnyvaley, CA, USA).

In data set [12] the test system is HeLa (cervix) human solid tumor cell line. The data set is described as follows: Antiproliferative SRB assay (HTS), HeLa. The data set is classed as cell-based. The conditions noted are these: 48 h. As to the method: as §1, §2
In data set [13] the test system is human solid tumor cell lines A549, SW1573, HBL-100, T-47D, HeLa, WiDr. Briefly: Antiproliferative SRB assay (HTS), whole panel of six cell lines. The format is cell-based. Particulars: Homo sapiens; range over the six tumor cell lines; read-out: GI50 against all the cell lines tested. As to the method: as §1, §2
Data set [14] relates to WiDr (colon) human solid tumor cell line. The data set is described as follows: Antiproliferative SRB assay (HTS), WiDr. The data set is classed as cell-based. Particulars: 48 h. The method, then: as §1, §2
For a further data set, the system named is Bv.2 microglia cells. The data set is described as follows: Cellular viability by crystal violet staining. The format is cell-based, mouse. Particulars: Bv.2 cells, 24 h, different concentrations. The method, then: as §5
After cell treatments, the medium was discarded, and the remaining viable adherent cells were stained with crystal violet (0.2% w/v in 2% ethanol) for 20 min. After this time, plates were rinsed with tap water and allowed to dry, and 1% SDS was added to solubilize them. The absorbance of each plate was read spectrophotometrically at 560 nm.

Read-outs that look alike come from different tables or passages of the source.

With `O=c1[nH]cc(F)c(=O)[nH]1` [Compound 5-FU, 5-fluorouracyl], in data set [1], the GI50 was 5 to 50 µM.

On to `CCCCCCCCCCCC[Se][C@@H]1[C@H](O)[C@@H](O)[C@H](O)[C@H]2COC(=O)N21` [Compound 10, (1R)-1-Dodecylseleno-5N,6O-oxomethylidenenojirimycin], for which the GI50 was 21 µM in data set [2]; 28 µM in data set [5]; 18 µM in data set [9]; 24 µM in data set [10]; 22 µM in data set [12]; 16 to 28 µM in [13]. In data set [14], this compound returned a GI50 of 22 µM. Also, the EC50 at 72 h in data set [3] was 84.25 ± 0.06 µM; in data set [4], 31.2 ± 1.61 µM. In addition, the “effect on LPS-elicited enhancement of iNOS” value in data set [6] is “fully abrogated”. The same compound registered an EC50 in data set [7] of 13.4 ± 1.63 µM. Also, the “induction of arginase-1” value in [8] is “direct effect on the induction of arginase-1”. Also, the “concentration at which nitrite production reached basal level” value in data set [11] is 10 µM. The “effect on cellular viability” value in the data set on Bv.2 microglia cells is recorded as “none of the concentrations used induced a negative effect”.

By GI50 is commonly meant the concentration giving 50% growth inhibition. One may read the EC50 as the midpoint of the concentration-response curve.
